The values that follow come from US9174984B2, “Chemical compounds” (GlaxoSmithKline Intellectual Property (No. 2) Limited, priority 2011, dated 2015).

In the first test the target is T1, Human DNMT3b/3L (Homo sapiens, UniProt Q9UBC3).
T1 construct: truncated 3b (catalytic domain)
Description: DNMT inhibition assay (3H-SAM filter-binding) against DNMT3b/3L. It counts as biochemical. The settings on record: at least one experimental run or average of several runs; Examples 1-114 and 115-120 use different protocols; read-out: IC50 against DNMT 3b/3L. The procedure: DNMT Assays Used for Examples 1-114
Human DNMT3b/3L was coexpressed using truncated 3b (catalytic domain) and 3L (DNA binding domain) at GSK. Human full-length DNMT1 enzyme purchased from BPS Biosciences. Poly(dIdC) DNA (Sigma) was used at 0.002 mg/mL. Tritiated SAM (Perkin Elmer) was used at 500 nM. DNA, DNMT enzyme, and inhibitors were mixed with assay buffer (20 mM Tris pH8, 5% glycerol, 1 mM EDTA, 100 μg/mL BSA, 1 mM DTT, 50 mM NaCl) and pre-incubated without SAM for 30 min. H3 SAM was then added to initiate the methylation reaction which continues at 37° C. for 1 h. Reaction mixture was then transferred to a filter plate (Millipore Multiscreen HTS DE), then washed with 50 mM H2PO4 and 95% Ethanol. Scintillation counts were measured on the Perkin Elmer Microbeta scintillation counter.
DNMT Assays Used for Examples 115-120
DNMT enzymes were produced by GlaxoSmithKline. Human DNMT3b/3L was coexpressed using truncated 3b (catalytic domain) and 3L (DNA binding domain). DNMT1 was human, full-length protein. 3H-SAM was purchased from Perkin Elmer. Custon DNA oligonucleotide substrates were purchased from Integrated DNA technologies.
28-mer DNA Oligonucleotide Duplex (for DNMT3b/3L)
DNMT enzyme was preincubated with compound for 1 hr at RT, after which SAM and DNA were added to initiate the methylation reaction. The methylation reaction was quenched after 20 min upon the addition of >100 fold excess non-radioactive SAM. The quenched reaction mixture (80%) was transferred to a DEAE filter binding plate (Millipore Multiscreen HTS DE), washed with 3 volumes of 50 mM phosphate buffer and dried. Scintillation cocktail (MicroScint-20) was added to the plate and radioactivity (3H-DNA) was measured using a Perkin Elmer TopCount scintillation counter.
Final reagent concentrations (prior to quench) consisted of the following:
DNMT3b/3L (10 nM), 200 nM DNA, 200 nM 3H-SAM in 20 mM Tris (pH 8), 1 mM DTT, 1 mM EDTA, 25 mM NaCl, 1 mM CHAPS and 2% DMSO.
Take `O=C(C#Cc1ccccc1)NCCCNS(=O)(=O)NCc1ccnc2[nH]ccc12` [Example 49, N-(3-((N-((1H-pyrrolo[2,3-b]pyridin-4-yl)methyl)sulfamoyl)amino)propyl)-3-phenylpropiolamide]: the IC50 is no more than 1000 nM.
Regarding `O=C(C#Cc1ccccc1)NCCNS(=O)(=O)NCc1ccnc2[nH]ccc12` [Example 50, N-(2-((N-((1H-pyrrolo[2,3-b]pyridin-4-yl)methyl)sulfamoyl)amino)ethyl)-3-phenylpropiolamide], the IC50 was no more than 10000 nM.
Still for that read-out and setting: then `O=C(CCBr)Nc1cccc(CNC(=S)NCc2ccnc3[nH]ccc23)c1` [Example 36, N-(3-((3-((1H-pyrrolo[2,3-b]pyridin-4-yl)methyl)thioureido)methyl)phenyl)-3-bromopropanamide], with no more than 20000 nM; and `C=CC(=O)Nc1ccc(F)c(CNC(=S)NCc2ccnc3[nH]ccc23)c1` [Example 74, N-(3-((3-((1H-pyrrolo[2,3-b]pyridin-4-yl)methyl)thioureido)methyl)-4-fluorophenyl)acrylamide], with no more than 10000 nM.
On the same count and under the same terms, then `CC#CC(=O)Nc1cc(Cl)ccc1CNC(=S)NCc1ccnc2[nH]ccc12` [Example 82, N-(2-((3-((1H-pyrrolo[2,3-b]pyridin-4-yl)methyl)thioureido)methyl)-5-chlorophenyl)but-2-ynamide], with no more than 1000 nM.
Regarding `S=C(NCc1ccccc1-c1nccs1)NCc1ccnc2[nH]ccc12` [Example 111, 1-((1H-Pyrrolo[2,3-b]pyridin-4-yl)methyl)-3-(2-(thiazol-2-yl)benzyl)thiourea], the IC50 is no more than 10000 nM.
For the molecule `NCC(=O)Nc1cccc(CNC(=S)NCc2ccnc3[nH]ccc23)c1` [Example 112, N-(3-((3-((1H-Pyrrolo[2,3-b]pyridin-4-yl)methyl)thioureido)methyl)phenyl)-2-aminoacetamide], the IC50 is no more than 20000 nM.
Take `C=CC(=O)Nc1ccccc1CNS(=O)(=O)NCc1ccnc2[nH]ccc12` [Example 39, N-(2-(((N-((1H-pyrrolo[2,3-b]pyridin-4-yl)methyl)sulfamoyl)amino)methyl)phenyl)acrylamide]: the IC50 is no more than 10000 nM.
With `O=C(C#Cc1ccccc1)Nc1cccc(CNC(=N[N+](=O)[O-])NCc2ccnc3[nH]ccc23)c1` [Example 24, N-(3-((3-((1H-pyrrolo[2,3-b]pyridin-4-yl)methyl)-2-nitroguanidino)methyl)phenyl)-3-phenylpropiolamide], the IC50 is no more than 1000 nM.
Still for that read-out and setting: then `S=C(NCc1ccccc1-c1cocn1)NCc1ccnc2[nH]ccc12` [Example 115, 1-((1H-pyrrolo[2,3-b]pyridin-4-yl)methyl)-3-(2-(oxazol-4-yl)benzyl)thiourea], with no more than 1000 nM.
The same measure, in the same setting: then `O=C(NCc1ccccc1-c1cscn1)NCc1ccnc2[nH]ccc12` [Example 120, 1-((1H-pyrrolo[2,3-b]pyridin-4-yl)methyl)-3-(2-(thiazol-4-yl)benzyl)urea], with no more than 1000 nM.
For `CN(C(=O)C#Cc1ccccc1)c1cccc(CNC(=S)NCc2ccnc3[nH]ccc23)c1` [Example 117, N-(3-((3-((1H-pyrrolo[2,3-b]pyridin-4-yl)methyl)thioureido)methyl)phenyl)-N-methyl-3-phenylpropiolamide], the IC50 is no more than 10000 nM.
For `Nc1cccc(CNC(=O)NCc2ccnc3[nH]cc(Cl)c23)c1` [Example 52, 1-(3-aminobenzyl)-3-((3-chloro-1H-pyrrolo[2,3-b]pyridin-4-yl)methyl)urea], the IC50 amounted to 7100 nM.
Consider `CC#CC(=O)Nc1cccc(CN/C(=N\C#N)NCc2ccnc3[nH]ccc23)c1` [Example 14, (E)-N-(3-((3-((1H-Pyrrolo[2,3-b]pyridin-4-yl)methyl)-2-cyanoguanidino)methyl)phenyl)but-2-ynamide], for which the IC50 is no more than 20000 nM.
As to `O=C(NCc1ccnc2[nH]ccc12)NC1CN(C(=O)C#CC2CCCCC2)C1` [Example 119, 1-((1H-pyrrolo[2,3-b]pyridin-4-yl)methyl)-3-(1-(3-cyclohexylpropioloyl)azetidin-3-yl)urea], the IC50 was no more than 1000 nM.

The test is the same for the next values; noted with them: read-out: IC50 against DNMT 3b/3L.
On to `O=C(NCc1ccnc2[nH]ccc12)NC1CCN(C(=O)C#Cc2ccccc2)C1` (centres unmarked) [Example 58, 1-((1H-pyrrolo[2,3-b]pyridin-4-yl)methyl)-3-(1-(3-phenylpropioloyl)pyrrolidin-3-yl)urea], for which the IC50 was no more than 1000 nM.
Turning to `O=C(C#Cc1ccccc1)Nc1cccc(CNC(=O)NCc2ccnc3[nH]cc(F)c23)c1` [Example 62, N-(3-((3-((3-fluoro-1H-pyrrolo[2,3-b]pyridin-4-yl)methyl)ureido)methyl)phenyl)-3-phenylpropiolamide], the IC50 was no more than 1000 nM.
Same read-out and setting: as for `O=C(C#Cc1ccccc1)NCc1ccccc1CNS(=O)(=O)NCc1ccnc2[nH]ccc12` [Example 55, N-(2-(((N-((1H-pyrrolo[2,3-b]pyridin-4-yl)methyl)sulfamoyl)amino)methyl)benzyl)-3-phenylpropiolamide], the figure is no more than 1000 nM; as for `O=C(C#Cc1ccccc1)N1CCCC(CNS(=O)(=O)NCc2ccnc3[nH]ccc23)C1` (centres unmarked) [Example 48, 1-((1H-pyrrolo[2,3-b]pyridin-4-yl)methyl)-3-((1-(3-phenylpropioloyl)piperidin-3-yl)methyl)sulfuric diamide], no more than 1000 nM; as for `O=C(C#Cc1ccccc1)Nc1cccc(CNC(=O)NCc2ccnc3[nH]cc(Cl)c23)c1` [Example 53, N-(3-((3-((3-chloro-1H-pyrrolo[2,3-b]pyridin-4-yl)methyl)ureido)methyl)phenyl)-3-phenylpropiolamide], no more than 1000 nM.
The same measure, in the same setting: as for `CN(CCNC(=O)NCc1ccnc2[nH]ccc12)C(=O)C#Cc1ccccc1` [Example 20, N-(2-(3-((1H-pyrrolo[2,3-b]pyridin-4-yl)methyl)ureido)ethyl)-N-methyl-3-phenylpropiolamide], the figure is no more than 10000 nM; as for `O=C(NCc1ccnc2[nH]ccc12)NC1CN(C(=O)C#Cc2ccccc2)C1` [Example 57, 1-((1H-pyrrolo[2,3-b]pyridin-4-yl)methyl)-3-(1-(3-phenylpropioloyl)azetidin-3-yl)urea], no more than 1000 nM; as for `NCc1cccc(NC(=S)NCc2ccnc3[nH]ccc23)c1` [Example 9, 1-((1H-Pyrrolo[2,3-b]pyridin-4-yl)methyl)-3-(3-(aminomethyl)phenyl)thiourea], no more than 20000 nM.
The same measure, in the same setting: then `O=C(C#Cc1ccccc1)NCc1ccccc1CNC(=S)NCc1ccnc2[nH]ccc12` [Example 56, N-(2-((3-((1H-pyrrolo[2,3-b]pyridin-4-yl)methyl)thioureido)methyl)benzyl)-3-phenylpropiolamide], with no more than 1000 nM; and `O=C(C#Cc1ccccc1)NCc1ccccc1CNC(=O)NCc1ccnc2[nH]ccc12` [Example 21, N-(2-((3-((1H-pyrrolo[2,3-b]pyridin-4-yl)methyl)ureido)methyl)benzyl)-3-phenylpropiolamide], with no more than 1000 nM; and `N#C/N=C(\NCCNC(=O)C#Cc1ccccc1)NCc1ccnc2[nH]ccc12` [Example 15, (Z)—N-(2-(3-((1H-Pyrrolo[2,3-b]pyridin-4-yl)methyl)-2-cyanoguanidino)ethyl)-3-phenylpropiolamide], with no more than 10000 nM.
`COc1ccc(C#CC(=O)NCCNC(=S)NCc2ccnc3[nH]ccc23)cc1` [Example 11, N-(2-(3-((1H-Pyrrolo[2,3-b]pyridin-4-yl)methyl)thioureido)ethyl)-3-(4-methoxyphenyl)propiolamide]: the IC50 was no more than 10000 nM.
The same measure, in the same setting: as for `O=C(C#Cc1ccccc1)Nc1cccc(CNC(=O)NCc2ccnc3[nH]ccc23)c1` [Example 1, N-(3-((3-((1H-Pyrrolo[2,3-b]pyridin-4-yl)methyl)ureido)methyl)phenyl)-3-phenylpropiolamide], the figure is no more than 1000 nM; as for `CC#CC(=O)Nc1cccc(CNC(=O)NCc2ccnc3[nH]ccc23)c1` [Example 3, N-(3-((3-((1H-Pyrrolo[2,3-b]pyridin-4-yl)methyl)ureido)methyl)phenyl)but-2-ynamide], no more than 1000 nM; as for `O=C(C#Cc1ccccc1)Nc1cccc(CNC(=O)NCc2ccnc3[nH]cc(Br)c23)c1` [Example 63, N-(3-((3-((3-bromo-1H-pyrrolo[2,3-b]pyridin-4-yl)methyl)ureido)methyl)phenyl)-3-phenylpropiolamide], no more than 1000 nM.
Same read-out and setting: then `O=C(C#Cc1ccccc1)NCCCNC(=O)NCc1ccnc2[nH]ccc12` [Example 17, N-(3-(3-((1H-pyrrolo[2,3-b]pyridin-4-yl)methyl)ureido)propyl)-3-phenylpropiolamide], with no more than 10000 nM; and `O=C(C#Cc1ccccc1)Nc1cccc(CCC(=O)NCc2ccnc3[nH]ccc23)c1` [Example 19, N-(3-(3-(((1H-pyrrolo[2,3-b]pyridin-4-yl)methyl)amino)-3-oxopropyl)phenyl)-3-phenylpropiolamide], with no more than 1000 nM.
